row,SMILES,melting point
1,CCCCCNS(N)(=O)=O,60 to 63 °C
2,CC1Oc2c(C(=O)[NH+]([O-])C3CN4CCC3CC4)cc(Cl)cc2N(C)C1=O (centres undefined),188 to 190 °C
3,COc1nc(NC(=O)NS(=O)(=O)c2cccc3c2CCCC3)nc(OC)n1,171 to 173 °C
4,CC(C)CCc1c(-c2ccc(S(C)(=O)=O)c(F)c2)cnn(-c2ccc(F)c(F)c2)c1=O,119 to 121 °C
5,Cn1c(=O)oc2cc3c(cc21)C1(CO3)C(=O)N(C(c2ccccc2)c2ccccc2)c2ccccc21 (centres undefined),> 250 °C
6,NC(=O)c1cn(-c2ccc(F)cc2)c2cc(Cl)ccc2c1=O,294 to 296 °C
7,N#Cc1ccc(N2CCN(c3ccnc(Cl)n3)CC2)cc1,216 to 218 °C
8,O=COCC#Cc1cc(F)c2ncc(C(=O)NCc3ccc(Cl)cc3)c(O)c2c1,231 to 233 °C
9,O=c1[nH]c2cc(Cl)ccc2c(O)c1-c1cccc(OCc2ccccc2)c1,293 to 295 °C
10,CC(O)(CF)C(=O)Nc1ccc(S(=O)(=O)c2ccncc2)cc1 (centres undefined),209 to 211 °C
11,COc1cc2nc(N)nc(-c3cc(-c4ccccc4)cc(-c4ccc(O)cc4)c3)c2cc1OC,255 to 257 °C
12,CC(=O)N1C(=O)N(N=Cc2cccnc2)Cc2cc(C(F)(C(F)(F)F)C(F)(F)F)ccc21,160 to 162 °C
13,O=C(Nc1ccc(N2CCC(C(C(=O)O)c3ccccc3)CC2)cc1)c1ccccc1-c1ccc(C(F)(F)F)cc1 (centres undefined),196 °C
14,Cc1cc(C)c(N=c2cc(-c3ccc(O)c(O)c3)n(C)c(=O)n2C)c(C)c1,222 to 225 °C
15,O=C1CC[C@H]2CC3(C=C[C@@H]2C1)OCCO3 (relative stereo),58 to 59 °C
16,CN(C)c1ccc(C2OC(C)(C)N=C2c2ccccc2Cl)cc1 (centres undefined),72.5 to 73.5 °C
17,CCOCc1cc(Cn2cc(C3c4ccccc4C=Cc4ccccc43)c(=S)[nH]c2=O)cc(C(=O)O)c1,> 240 °C
18,COc1cc(C=CC(=O)Nc2cnc3cc(C)c(C)cc3c2-c2ccccc2Cl)cc(OC)c1O,278 to 280 °C
19,O=C(O)COc1ccc(SCc2ccc(OCc3ccc(CF)cc3)cc2)c2c1CCC2,153 to 155 °C
20,CN(CCCCCC(=O)NO)C(=O)/C=C/C=C/c1ccccc1,145 to 147 °C
21,CCc1cc(C(=O)O)ccc1C(N)C(=O)O (centres undefined),189 to 193 °C
22,COc1ccc2ccccc2c1C(Nc1ccccc1C)C(=O)O (centres undefined),188 °C
23,COc1cccc([C@]23CCN(C)C(=O)[C@@H]2CCC(=O)C3)c1 (relative stereo),156 to 158 °C

row,SMILES,melting point
1,NC(=O)NCc1cccc(-c2csc(N=C(N)N)n2)c1,230 to 232 °C
2,CC1(C)CC(=O)c2c(-c3ccccc3)cn(-c3ccccn3)c2C1,160 to 162 °C
3,CCCCCCCCCCCCc1cc(CC(=O)Nc2c(OC)cc(OC)cc2OC)on1,107 to 109 °C
4,O=[N+]([O-])c1ccc(OC(c2c(Cl)cccc2Cl)C(F)(F)F)cc1 (centres undefined),108 °C
5,Cc1ccc(S(=O)(=O)OC(C#N)(c2ccccc2)C(F)(F)F)cc1 (centres undefined),70 °C
6,Nc1ncnc2c1c(Br)cn2COCCO,163 to 164 °C
7,COc1ccc(N2Cc3ccccc3P2(=O)C(C)C)cc1 (centres undefined),135 to 137 °C
8,NC(=O)c1cc2c(Sc3ccccn3)cncc2s1,239 to 242 °C
9,COc1cc(CO)c(-c2cc3c(cc2CO)OCO3)c(OC)c1OC,123 to 124 °C
10,CCCOC(=O)c1ccc(OC(=O)c2ccccc2C(=O)Oc2ccc(C(=O)OCCC)cc2)cc1,87 to 89 °C
11,CN(C)C=Nc1nnnc2c1ncn2C1CC(O)C(CO)O1 (centres undefined),173 to 175 °C
12,COc1ccc(-c2nc(CN3CCCCC3)nc3cc(OC)c(OC)cc23)cc1OC,130 to 132 °C
13,COC(=O)c1cc(C(C)=O)cnc1C1=NC(C)(C(C)C)C(=O)N1 (centres undefined),105 to 108 °C
14,Cn1c(=O)c(=O)[nH]c2ccccc21,277 to 286 °C
15,CCCn1nc(C(C)C)c(C(=O)OCc2cccc(C(=O)c3ccccc3)c2)c1Cc1ccc(-c2ccccc2S(N)(=O)=O)c(F)c1,46 to 50 °C
16,O=C(Nc1cc(Cl)cc(Cl)c1)Nc1ccc(Cl)cc1-c1nnn[nH]1,234 to 236 °C
17,NS(=O)(=O)c1cc(C(=O)O)cc(S(=O)(=O)Cc2ccccc2)c1Cl,236 to 237 °C
18,Cc1oc(-c2ccccc2)nc1CCOc1ccc(C[C@H](NC(=O)C=Cc2cccc(C(F)(F)F)c2)C(=O)O)cc1,214 to 216 °C
19,O=C(NOCCNc1ccccc1)c1ccc(F)c(F)c1Nc1ccc(I)cc1Cl,158 °C
20,Cc1ccc(-c2cc(C(=O)O)c(=O)n(CC(C)C)n2)cc1F,159 to 160 °C
21,CN(C(=O)C1CCC1)c1cccc(-c2ccnc3c(C(=O)c4ccccc4)cnn23)c1,168 to 170 °C
22,CCOC(=O)C1CCCN2CCC3c4cc(Cl)ccc4NC3C12 (centres undefined),124 °C
23,O=c1c(C(F)(F)F)cn(C2CC(O)C(COCc3ccccc3)O2)c(=O)n1C1CCCO1 (centres undefined),145 to 147 °C

row,SMILES,melting point
1,O=C(NCc1cc(Br)cc2[nH]c(=O)c(=O)[nH]c12)c1ccccn1,> 270 °C
2,Cc1nn(C(=O)NC2CCCCC2)c(=O)n1NC(C)C,92 °C
3,CC1(C)C2CCC1(CN1CN(CC34CCC(CC3)C4(C)C)CN(CC34CCC(CC3)C4(C)C)C1)CC2,175 to 180 °C
4,CC(c1cc2ccccc2s1)N(O)C=O (centres undefined),115 to 116 °C
5,Cc1cc(CBr)cc(CBr)c1,65 to 66 °C
6,CN(C)Cc1nncn1-c1ccc(Br)cc1C(=O)c1ccccn1,145 to 146 °C
7,COc1cc(I)nc(N)n1,142 to 144 °C
8,CS(=O)(=O)c1cc(O)ccc1/C=C/c1ccc(O)cc1,244 to 245 °C
9,Cc1c(Cc2cccc(C(F)(F)F)c2)oc2c(-c3cc(C(=O)NCCO)ccn3)cccc12,205 to 206 °C
10,CC(C)CN1c2ccccc2C(C)(C)C12C=Nc1c(cc(N3CCc4ccccc43)c3ccccc13)O2 (centres undefined),167 to 168 °C
11,CC(C)NC(=O)OCC(=O)c1ccccc1F,70 to 74 °C
12,O=C1C(Cc2ccc(Br)cc2)=C(C(F)F)C(=O)c2ccccc21,103 to 104 °C
13,COc1cc2c(CCNC(C)=O)c[nH]c2cc1F,158 to 159 °C
14,Cc1cccc2c1nc1n2CC(c2ccccn2)S1 (centres undefined),96 °C
15,CCCCn1ccc(Cc2cnc(NCCCCc3ncc(Br)cc3N)[nH]c2=O)cc1=O,140 to 150 °C
16,COCc1cc([N+](=O)[O-])ccc1OCc1ccccc1,108 °C
17,O=C1CC(c2ccc3oc4c(c3c2)CCCC4)CC(=O)N1,184 to 193 °C
18,COc1ccc(N2CCN(c3c(C)c4c(c(C(C)O)c3C)OC(C)(C)C4)CC2)cc1 (centres undefined),183 to 186 °C
19,CC(=C1SC(=O)NC1=O)c1ccc(OCCOc2c(-c3ccc(Cl)cc3)n(C)c3ccccc3c2=O)cc1,238 to 240 °C
20,C=CCOc1ccccc1C(=O)Nc1c(CCC)nn(C)c1C(N)=O,132 to 134 °C
21,COc1ccc(SCc2ccc(-c3csnn3)cc2)cc1,117 to 119 °C
22,COc1cccc(CNC(=O)c2nc3ccc(F)c(OCCc4ccc(C(=O)O)cc4)c3c(=O)[nH]2)c1,227 to 229 °C
23,COc1cc2ncc(C#N)c(Nc3cc(C)ccc3O)c2cc1OC,198 to 200 °C

# Source: a melting point compilation (Tetko et al.; mined from patent text by program, amines drawn as free bases though some values may be those of a salt)
